From EP0029306A1, “Aminoalkyl compounds, their production and pharmaceutical compositions containing them” (GLAXO GROUP LIMITED, priority 1979, dated 1981)
Where two headings read alike, the source gives them in different places.

System: histamine induced gastric acid secretion
Test: Inhibition of histamine induced gastric acid secretion in the perfused rat stomach preparation
Assay type: in vivo
Settings: sodium pentobarbitone anaesthesia

Compound Cn1nc(CO)nc1NCCCCCOc1cccc(CN2CCCCC2)c1 [2(a)] has an ED50 (read-out: ED50) of 0.2 mg/kg.
Compound Cn1nc(N)nc1NCCCCCOc1cccc(CN2CCCCC2)c1 [1(b), 1-methyl-N^5-[5-[3-(1-piperidinyl-methyl)phenoxy]pentyl]-1H-1,2,4-triazole-3,5-diamine] has an ED50 (read-out: ED50) of 0.19 mg/kg.
Work on “3-Phenylmethyl-5-[[2-[2-[3-(1-piperidinylmethyl)phenoxy] ethoxy]ethyl]amino]-1H-1,2,4-triazole [Example 4]” yielded an ED50 of 0.17 mg/kg.
For CC(=O)Nc1nc(NCCCCCOc2cccc(CN3CCCCC3)c2)n(C)n1 [Example 3], the ED50 (read-out: ED50) was 0.22 mg/kg.
For CNC(=C[N+](=O)[O-])NCCCCCOc1cccc(CN2CCCCC2)c1 [5(b), N-[5-[3-(1-Piperidinylmethyl)phenoxy]pentyl]-N^1methyl-2-nitro-l,l-ethenediamine], the ED50 was 0.027 mg/kg.
